Values of other authors, collected in publication PMC11887077 (BMC Cancer, 2025).

Tested on: NRP1
Settings: in vitro

Q: With CLKADK [CK2] as the substance, how does the “affinity with NRP1 compared with CK3” value read?
A: higher affinity
